Literature values as cited in US20090062239A1, “THROMBIN RECEPTOR ANTAGONISTS AS PROPHYLAXIS TO COMPLICATIONS FROM CARDIOPULMONARY SURGERY” (Schering Corporation, priority 2005, published 2009).

Key:
[1] = vein grafts closing off between two weeks and one year after CABG surgery
[2] = treated patients, cardiac/coronary surgery
[3] = high-risk patients undergoing primary CABG, those on aspirin, reoperative bypass

Row | risk for postoperative hemorrhage [2] | Compound | other results
1 |  | CC(=O)Oc1ccccc1C(=O)O [aspirin] | reduction of later vein graft closings [1]: 50%
2 | greater risk | COC(=O)[C@H](c1ccccc1Cl)N1CCc2sccc2C1 [clopidogrel] | 
3 |  | Aprotinin | postoperative blood loss [3]: significantly decreases; transfusion requirements (both units and number of patients) [3]: significantly decreases
4 | greater risk | low-molecular weight heparin | 

Row | Compound | risk for postoperative hemorrhage [2] | other results
5 | abciximab | greater risk | 
